Source: ChEMBL document CHEMBL1641416, “2-Arylbenzoxazoles as CETP inhibitors: raising HDL-C in cynoCETP transgenic mice” (Bioorg Med Chem Lett, 2011)

Key:
in vivo [1] = settings: mouse
Description: Half life in wild type mouse

in vivo [2] = settings: mouse; remark: listed apart in the source
Description: Clearance in wild type mouse

in vivo [3] = settings: mouse, po
Description: Oral bioavailability in wild type mouse

Structure (SMILES): Cc1cc(C#N)cc2nc(-c3ccc(NC(=O)CN4CCN(c5ccc(C(F)(F)F)cc5)CC4)cc3)oc12
- half-life (in vivo [1]): 4.1 h
- clearance (in vivo [2]): 25 mL/min/kg
- bioavailability (in vivo [3]): 56%
